Data published in patent publication US8501708B2, “Adenosine compounds and their use thereof” (Inotek Pharmaceuticals Corporation, priority 2011, dated 2013).

Legend:
[1] = biological target: human recombinant A2A adenosine receptor (Homo sapiens (Human), UniProt P29274); assay: Adenosine receptor binding, displacement of specific [3H]NECA binding; settings: [3H]NECA displacement, CHO cells stably transfected with human recombinant A2A adenosine receptor
Source text: (§1) The compounds were studied in binding assays to determine their selectivity and potency to the A1, A2a and A3 adenosine receptors.

[2] = biological target: human recombinant A3 adenosine receptor (Homo sapiens (Human), UniProt P0DMS8); assay: as above; settings: [3H]NECA displacement, CHO cells stably transfected with human recombinant A3 adenosine receptor
Sequence of human recombinant A3 adenosine receptor (P0DMS8 whole entry): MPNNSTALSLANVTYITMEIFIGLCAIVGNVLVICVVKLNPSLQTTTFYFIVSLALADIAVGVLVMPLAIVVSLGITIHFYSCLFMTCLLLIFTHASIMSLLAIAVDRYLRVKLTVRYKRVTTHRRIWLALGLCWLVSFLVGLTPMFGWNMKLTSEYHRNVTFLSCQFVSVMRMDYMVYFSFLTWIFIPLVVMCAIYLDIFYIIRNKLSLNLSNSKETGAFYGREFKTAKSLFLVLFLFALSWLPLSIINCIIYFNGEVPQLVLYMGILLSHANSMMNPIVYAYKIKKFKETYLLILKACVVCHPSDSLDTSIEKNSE
Source text: as §1

[3] = biological target: human recombinant A1 adenosine receptor (Homo sapiens (Human), UniProt P30542); assay: Adenosine receptor binding, displacement of specific [3H]CCPA binding; settings: [3H]CCPA displacement, CHO cells stably transfected with human recombinant A1 adenosine receptor
Sequence of human recombinant A1 adenosine receptor (P30542 whole entry): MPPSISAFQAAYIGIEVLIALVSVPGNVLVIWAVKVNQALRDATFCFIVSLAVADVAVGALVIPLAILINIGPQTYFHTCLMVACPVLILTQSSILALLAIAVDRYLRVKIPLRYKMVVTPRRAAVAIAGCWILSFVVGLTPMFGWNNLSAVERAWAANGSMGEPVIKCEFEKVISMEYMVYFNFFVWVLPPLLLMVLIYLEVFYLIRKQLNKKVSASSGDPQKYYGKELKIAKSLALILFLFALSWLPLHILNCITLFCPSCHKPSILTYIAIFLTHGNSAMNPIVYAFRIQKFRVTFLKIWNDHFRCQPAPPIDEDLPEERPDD
Source text: as §1

[4] = tested on: ocular normotensive Dutch-Belted rabbits; assay: Changes in intraocular pressure after topical administration to the eye; assay type: in vivo, rabbit; settings: for changes in IOP relative to baseline after dosing (in words): 0-6 hours
Procedure: The study involved groups of eight rabbits and the rabbits were acclimated for two days before they received a single dose in either the right eye or left eye of the HPCD control. The IOP of the groups of rabbits were recorded at 0, 1, 2, 4 and 6 hours after dosing of the control.

Sequence of human recombinant A2A adenosine receptor (P29274 whole entry): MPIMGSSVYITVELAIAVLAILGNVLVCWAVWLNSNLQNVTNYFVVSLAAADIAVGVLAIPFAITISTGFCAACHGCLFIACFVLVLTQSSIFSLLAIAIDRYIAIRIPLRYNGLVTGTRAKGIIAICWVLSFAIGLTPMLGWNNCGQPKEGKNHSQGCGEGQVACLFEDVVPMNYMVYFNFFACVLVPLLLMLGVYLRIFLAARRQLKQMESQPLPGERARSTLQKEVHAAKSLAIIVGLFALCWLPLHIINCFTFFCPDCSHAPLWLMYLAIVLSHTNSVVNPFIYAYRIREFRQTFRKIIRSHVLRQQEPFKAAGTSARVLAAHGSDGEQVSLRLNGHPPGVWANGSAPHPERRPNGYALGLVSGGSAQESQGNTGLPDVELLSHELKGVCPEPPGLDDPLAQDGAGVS

Row | SMILES | Ki [1] | Ki [2] | Ki [3] | changes in IOP relative to baseline after dosing (in words) ([4]; topical single dose 200 mcg) | return of IOP to baseline levels, time post dosing ([4]; topical single dose 200 mcg) | reduction of IOP ([4]; topical single dose 200 mcg in HPCD formulation, 2 hours post dosing)
1 | Cc1ccc(CO[C@H]2CCC[C@@H]2Nc2ncnc3c2ncn3[C@@H]2O[C@H](CO)[C@@H](O)[C@H]2O)cc1 [Compound 3, (2R,3S,4R,5R)-2-(hydroxymethyl)-5-(6-((1S,2S)-2-(4-methylbenzyloxy)cyclopentylamino)-9H-purin-9-yl)tetrahydrofuran-3,4-diol] | 25400 nM | 2550 nM | 29 nM |  |  | 
2 | OC[C@H]1OC(n2cnc3c(NC4CCCCC4OCc4ccccc4)ncnc32)[C@H](O)[C@@H]1O (stereo partly shown) [Compound 4] |  | > 100000 nM |  |  |  | 
3 | OC[C@H]1OC(n2cnc3c(NC4CCCCC4OCc4ccccc4)ncnc32)[C@H](O)[C@@H]1O (stereo partly shown) [Compound 5] |  | > 100000 nM |  |  |  | 
4 | Cc1cccc(CO[C@H]2CCC[C@@H]2Nc2ncnc3c2ncn3[C@@H]2O[C@H](CO)[C@@H](O)[C@H]2O)c1 [Compound 6, (2R,3S,4R,5R)-2-(hydroxymethyl)-5-(6-((1S,2S)-2-(3-methylbenzyloxy)cyclopentylamino)-9H-purin-9-yl)tetrahydrofuran-3,4-diol] | 5320 nM | 1350 nM | 2.79 nM |  |  | 
5 | Cc1ccccc1CO[C@H]1CCC[C@@H]1Nc1ncnc2c1ncn2[C@@H]1O[C@H](CO)[C@@H](O)[C@H]1O [Compound 7, (2R,3S,4R,5R)-2-(hydroxymethyl)-5-(6-((1S,2S)-2-(2-methylbenzyloxy)cyclopentylamino)-9H-purin-9-yl)tetrahydrofuran-3,4-diol] | 7330 nM | 1570 nM | 12.6 nM |  |  | 
6 | OC[C@H]1OC(n2cnc3c(NC4CCC[C@@H]4OCc4ccc(F)cc4)ncnc32)[C@H](O)[C@@H]1O (stereo partly shown) [Compound 9] | 11400 nM | 1870 nM |  |  |  | 

More lines, main results first:

Row | Ki [1] | Ki [2] | Ki [3] | SMILES | changes in IOP relative to baseline after dosing (in words) ([4]; topical single dose 200 mcg) | return of IOP to baseline levels, time post dosing ([4]; topical single dose 200 mcg) | reduction of IOP ([4]; topical single dose 200 mcg in HPCD formulation, 2 hours post dosing)
7 | 5540 nM | 1630 nM |  | OC[C@H]1O[C@@H](n2cnc3c(N[C@H]4CCC[C@@H]4OCc4cccc(F)c4)ncnc32)[C@H](O)[C@@H]1O [Compound 8, (2R,3R,4S,5R)-2-(6-((1S,2S)-2-(3-fluorobenzyloxy)cyclopentylamino)-9H-purin-9-yl)-5-(hydroxymethyl)tetrahydrofuran-3,4-diol] |  |  | 
8 |  | 1290 nM |  | OC[C@H]1O[C@@H](n2cnc3c(N[C@H]4CCC[C@@H]4OCc4cccc(I)c4)ncnc32)[C@H](O)[C@@H]1O [Compound 11, (2R,3S,4R,5R)-2-(hydroxymethyl)-5-(6-((1S,2S)-2-(3-iodobenzyloxy)cyclopentylamino)-9H-purin-9-yl)tetrahydrofuran-3,4-diol] | do not show significant changes in IOP |  | 
9 | 3370 nM | 2620 nM | 2.65 nM | Cc1cccc(CO[C@@H]2CCC[C@H]2Nc2ncnc3c2ncn3[C@@H]2O[C@H](CO)[C@@H](O)[C@H]2O)c1 [Compound 17, (2R,3S,4R,5R)-2-(hydroxymethyl)-5-(6-((1R,2R)-2-(3-methylbenzyloxy)cyclopentylamino)-9H-purin-9-yl)tetrahydrofuran-3,4-diol] | do not show significant changes in IOP |  | 
10 | 422 nM | 5100 nM | 2.28 nM | Cc1ccccc1CO[C@@H]1CCC[C@H]1Nc1ncnc2c1ncn2[C@@H]1O[C@H](CO)[C@@H](O)[C@H]1O [Compound 18, (2R,3S,4R,5R)-2-(hydroxymethyl)-5-(6-((1R,2R)-2-(2-methylbenzyloxy)cyclopentylamino)-9H-purin-9-yl)tetrahydrofuran-3,4-diol] |  | 6 h | 20%
11 | 2550 nM | 4040 nM |  | OC[C@H]1O[C@@H](n2cnc3c(N[C@@H]4CCC[C@H]4OCc4cccc(F)c4)ncnc32)[C@H](O)[C@@H]1O [Compound 19, (2R,3R,4S,5R)-2-(6-((1R,2R)-2-(3-fluorobenzyloxy)cyclopentylamino)-9H-purin-9-yl)-5-(hydroxymethyl)tetrahydrofuran-3,4-diol] |  |  | 
12 | 3780 nM | 3710 nM |  | OC[C@H]1O[C@@H](n2cnc3c(N[C@@H]4CCC[C@H]4OCc4ccc(F)cc4)ncnc32)[C@H](O)[C@@H]1O [Compound 20, (2R,3R,4S,5R)-2-(6-((1R,2R)-2-(4-fluorobenzyloxy)cyclopentylamino)-9H-purin-9-yl)-5-(hydroxymethyl)tetrahydrofuran-3,4-diol] |  |  | 
13 |  | 551 nM |  | OC[C@H]1O[C@@H](n2cnc3c(N[C@@H]4CCC[C@H]4OCc4cccc(I)c4)ncnc32)[C@H](O)[C@@H]1O [Compound 22, (2R,3S,4R,5R)-2-(hydroxymethyl)-5-(6-((1R,2R)-2-(3-iodobenzyloxy)cyclopentylamino)-9H-purin-9-yl)tetrahydrofuran-3,4-diol] |  |  | 
